The text below walks through data of patent US8916702B2 (priority 2012, dated 2014).

Read-outs that look alike come from different tables or passages of the source.

In the experiment the test system is HCV pseudoparticles (genotype 1a HCV E1 and E2 envelope, H77C isolate). As to the kind of experiment: microbe, parasite or virus in culture. Conditions: Hepatitis C virus. It counts as cell-based.
The mark [1] stands for this setting: Huh-7, read-out: Activity (EC50 class), HCV pseudoparticles (genotype 1a, H77C) in Huh7 cells, EC50 expressed as class A/B.
Where [2] appears, read: Huh-7, 48 h, read-out: Activity (EC50 class), HCV pseudoparticle infection of Huh7 cells, luciferase 2 days after infection, EC50 expressed as class A/B.
[3] abbreviates: Huh-7, 48 h, HCV pseudoparticle infection of Huh7 cells, luciferase 2 days after infection, average of duplicates.
[4] abbreviates: Huh-7, 48 h, read-out: Activity (EC50 class), HCV pseudoparticles, Huh7 cells, luciferase 2 days after infection, average of duplicates.

For `COC(=O)[C@H](CNC(=O)C(=O)Nc1ccc(CNC(N)=O)cc1)NC(=O)c1ccc(Nc2nc(NC3(c4ccc(Cl)cc4)CC3)nc(OCC(F)(F)F)n2)cc1` [Compound 3197], under setting [1], the EC50 – broadly, the concentration giving half of the maximal effect – was 0.01 to 10 nM.

Regarding `C=C(C)c1ccccc1NC(=O)C(=O)NCC(C)(C)CNC(=O)c1ccc(Nc2nc(NC3(c4ccc(Cl)cc4)CC3)nc(OCC(F)(F)F)n2)cc1` [Compound 3140], under setting [1], the EC50 was 0.01 to 10 nM.

For the compound `COC(=O)[C@H](CNC(=O)C(=O)Nc1cn[nH]c1)NC(=O)c1ccc(Nc2nc(NC3(c4ccc(Cl)cc4)CC3)nc(OCC(F)(F)F)n2)cc1` [Compound 1246], the EC50 under setting [2] is 0.01 to 10 nM.

Regarding `COC(=O)[C@H](CNC(=O)C(=O)Nc1ccc(OC)nc1)NC(=O)c1ccc(Nc2nc(NC3(c4ccc(Cl)cc4)CC3)nc(OCC(F)(F)F)n2)cc1` [Compound 1242], the EC50 is, setting by setting: under setting [3], 0.32 nM; under setting [2], 0.01 to 10 nM.

For the compound `O=C(NCC[C@H](NC(=O)c1ccc(Nc2nc(NC3(c4ccc(Cl)cc4)CC3)nc(OCC(F)(F)F)n2)cc1)C(=O)O)C(=O)Nc1cccc(-c2ccccc2)c1` [Compound 1523], the response under setting [3] was half-maximal at 0.26 nM (EC50) and the EC50 under setting [2] lay within 0.01 to 10 nM.

With `CC(C)(CNC(=O)C(=O)NCc1cccc(F)c1)CNC(=O)c1ccc(Nc2nc(NC3(c4ccc(Cl)cc4)CC3)nc(OCC(F)(F)F)n2)cc1` [Compound 3004], under setting [1], the EC50 is 0.01 to 10 nM.

With `O=C(NC/C(=N/C(=O)c1ccc(Nc2nc(NC3(c4ccc(Cl)cc4)CC3)nc(OCC(F)(F)F)n2)cc1)C(=O)O)C(=O)Nc1ccc(C2CCCCC2)cc1` [Compound 3147], the EC50 under setting [1] lay in the range of 0.01 to 10 nM.

Regarding `O=C(Nc1cc(F)cc(F)c1)C(=O)N[C@H](CCNC(=O)c1ccc(Nc2nc(NC3(c4ccc(Cl)cc4)CC3)nc(OCC(F)(F)F)n2)cc1)C(=O)O` [Compound 3493], the EC50 under setting [1] was 0.01 to 10 nM.

For `Cc1nccc(-c2cccc(NC(=O)C(=O)NCC[C@H](NC(=O)c3ccc(Nc4nc(NC5(c6ccc(Cl)cc6)CC5)nc(OCC(F)(F)F)n4)cc3)C(=O)O)c2)n1` [Compound 3625], under setting [4], the EC50 is 0.01 to 10 nM.

Regarding `CC(C)(CNC(=O)C(=O)Nc1ccc2nccnc2c1)CNC(=O)c1ccc(Nc2nc(NC3(c4ccc(Cl)cc4)CC3)nc(OCC(F)(F)F)n2)cc1` [Compound 3026], under setting [1], the EC50 was in the range of 0.01 to 10 nM.

As for `CC(C)(CNC(=O)C(=O)Nc1ccc(-c2ccc(C(=O)O)cc2)cc1)CNC(=O)c1ccc(Nc2nc(NC3(c4ccc(Cl)cc4)CC3)nc(OCC(F)(F)F)n2)cc1` [Compound 1542], the EC50 under setting [2] was in the range of 0.01 to 10 nM.

In the case of `CCCc1ccc(NC(=O)C(=O)NCC(C)(C)CNC(=O)c2ccc(Nc3nc(NC4(c5ccc(Cl)cc5)CC4)nc(OCC(F)(F)F)n3)cc2)cc1` [Compound 1573], under setting [2], the concentration giving a half-maximal response (EC50) was in the range of 0.01 to 10 nM.

As for `COC(=O)[C@H](CCNC(=O)C(=O)Nc1ccc(-c2csc(N3CCOCC3)n2)cc1)NC(=O)c1ccc(Nc2nc(NC3(c4ccc(Cl)cc4)CC3)nc(OCC(F)(F)F)n2)cc1` [Compound 3318], the EC50 under setting [1] lay in the range of 0.01 to 10 nM.

As for `CC(C)(CNC(=O)C(=O)NCc1cccc(C(=N)N)c1)CNC(=O)c1ccc(Nc2nc(NC3(c4ccc(Cl)cc4)CC3)nc(OCC(F)(F)F)n2)cc1` [Compound 3039], under setting [1], the EC50 lay within 0.01 to 10 nM.

For the compound `CC(C)(CNC(=O)C(=O)Nc1ccc2sccc2c1)CNC(=O)c1ccc(Nc2nc(NC3(c4ccc(Cl)cc4)CC3)nc(OCC(F)(F)F)n2)cc1` [Compound 3666], the EC50 under setting [4] was in the range of 0.01 to 10 nM.

For `COC(=O)[C@H](CCNC(=O)C(N)=O)NC(=O)c1ccc(Nc2nc(NC3(c4ccc(Cl)cc4)CC3)nc(OCC(F)(F)F)n2)cc1` [Compound 1009, (S)-methyl 4-(2-amino-2-oxoacetamido)-2-(4-(4-(1-(4-chlorophenyl)cyclopropylamino)-6-(2,2,2-trifluoroethoxy)-1,3,5-triazin-2-ylamino)benzamido)butanoate], the EC50 under setting [2] was 0.01 to 10 nM.

In the case of `CN(CCCN(C)C(=O)c1ccc(Nc2nc(NC3(c4ccc(Cl)cc4)CC3)nc(OCC(F)(F)F)n2)cc1)C(=O)C(=O)Nc1cccc(F)c1` [Compound 3410], the EC50 under setting [1] lay in the range of 0.01 to 10 nM.

`O=C(NCc1ccc(F)cc1)C(=O)NC[C@H](NC(=O)c1ccc(Nc2nc(NC3(c4ccc(Cl)cc4)CC3)nc(OCC(F)(F)F)n2)cc1)C(=O)O` [Compound 1166]: under setting [2], the EC50 fell in the range of 0.01 to 10 nM.

On to `O=C(NCC[C@H](NC(=O)c1ccc(Nc2nc(NC3(c4ccc(Cl)cc4)CC3)nc(OCC(F)(F)F)n2)cc1)C(=O)O)C(=O)NCC1(c2ccccc2)CC1` [Compound 1421], for which the EC50 under setting [2] lay in the range of 0.01 to 10 nM.

Turning to `COC(=O)[C@H](CCNC(=O)C(=O)Nc1ccc(OCCc2ccccn2)cc1)NC(=O)c1ccc(Nc2nc(NC3(c4ccc(Cl)cc4)CC3)nc(OCC(F)(F)F)n2)cc1` [Compound 3315], the EC50 under setting [1] is 0.01 to 10 nM.

Turning to `CC(C)(CNC(=O)C(=O)NS(C)(=O)=O)CNC(=O)c1ccc(Nc2nc(NC3(c4ccc(Cl)cc4)CC3)nc(OCC(F)(F)F)n2)cc1` [Compound 3031], the EC50 under setting [1] was 0.01 to 10 nM.

Take `COC(=O)[C@H](CNC(=O)C(=O)N[C@H]1C[C@H]1c1ccccc1)NC(=O)c1ccc(Nc2nc(NC3(c4ccc(Cl)cc4)CC3)nc(OCC(F)(F)F)n2)cc1` [Compound 1294]: under setting [2], the EC50 fell in the range of 0.01 to 10 nM.

As for `CC(C)(CNC(=O)C(=O)Nc1nc2ccc(Cl)cc2s1)CNC(=O)c1ccc(Nc2nc(NC3(c4ccc(Cl)cc4)CC3)nc(OCC(F)(F)F)n2)cc1` [Compound 3807], the EC50 (Huh-7, 48 h, HCV pseudoparticles, Huh7 cells, luciferase 2 days after infection, average of duplicates) is 0.28 nM and the EC50 under setting [4] was in the range of 0.01 to 10 nM.

Take `COC(=O)[C@H](CNC(=O)C(=O)Nc1ccc(-c2ccncc2)cc1)NC(=O)c1ccc(Nc2nc(NC3(c4ccc(Cl)cc4)CC3)nc(OCC(F)(F)F)n2)cc1` [Compound 3181]: under setting [1], the EC50 is 0.01 to 10 nM.

As to `COC(=O)/C(CCNC(=O)C(=O)Nc1cccc(S(=O)(=O)C2CCCCC2)c1)=N\C(=O)c1ccc(Nc2nc(NC3(c4ccc(Cl)cc4)CC3)nc(OCC(F)(F)F)n2)cc1` [Compound 3595], the EC50 under setting [1] fell in the range of 0.01 to 10 nM.

With `CC(C)(CNC(=O)C(N)=O)CNC(=O)c1ccc(Nc2nc(NC3(c4ccccc4Cl)CC3)nc(OCC(F)(F)F)n2)cc1` [Compound 3265], the EC50 under setting [1] fell in the range of 10 to 1000 nM.

On to `COc1ccc(-c2ccccc2NC(=O)C(=O)NCC(C)(C)CNC(=O)c2ccc(Nc3nc(NC4(c5ccc(Cl)cc5)CC4)nc(OCC(F)(F)F)n3)cc2)cc1` [Compound 3065], for which the EC50 under setting [1] fell in the range of 0.01 to 10 nM.

For the compound `COC(=O)[C@H](CCNC(=O)C(=O)NC1CCCCC1C)NC(=O)c1ccc(Nc2nc(NC3(c4ccc(Cl)cc4)CC3)nc(OCC(F)(F)F)n2)cc1` (some centres unmarked) [Compound 1075], the EC50 under setting [2] fell in the range of 0.01 to 10 nM.

As to `COC(=O)[C@H](CNC(=O)C(=O)Nc1cnn(C)c1)NC(=O)c1ccc(Nc2nc(NC3(c4ccc(Cl)cc4)CC3)nc(OCC(F)(F)F)n2)cc1` [Compound 1248], under setting [2], the EC50 fell in the range of 0.01 to 10 nM.

Turning to `O=C(NCC[C@H](NC(=O)c1ccc(Nc2nc(NC3(c4ccc(Cl)cc4)CC3)nc(OCC(F)(F)F)n2)cc1)C(=O)O)C(=O)Nc1ccccc1` [Compound 1433], under setting [2], the EC50 is 0.01 to 10 nM.

Consider `O=C(NCC[C@H](NC(=O)c1ccc(Nc2nc(NC3(c4ccc(Cl)cc4)CC3)nc(OCC(F)(F)F)n2)cc1)C(=O)O)C(=O)NCC1CC1c1ccc(F)cc1` (some centres unmarked) [Compound 1438], for which the EC50 under setting [2] was in the range of 0.01 to 10 nM.

In the case of `CC(CNC(=O)C(=O)Nc1nccs1)CNC(=O)c1ccc(Nc2nc(NC3(c4ccc(Cl)cc4)CC3)nc(OCC(F)(F)F)n2)cc1` (centres unmarked) [Compound 3468], the EC50 under setting [1] was in the range of 0.01 to 10 nM.

Consider `C#Cc1ccc(NC(=O)C(=O)NC[C@H](NC(=O)c2ccc(Nc3nc(NC4(c5ccc(Cl)cc5)CC4)nc(OCC(F)(F)F)n3)cc2)C(=O)OC)cc1` [Compound 3100], for which the EC50 (Huh-7, 48 h, HCV pseudoparticles (genotype 1a, H77C) in Huh7 cells, average of duplicate, luciferase 2 days after infection) came to 0.27 nM and the EC50 under setting [1] is 0.01 to 10 nM.

In the case of `CC(C)(CNC(=O)C(=O)Nn1cnnc1)CNC(=O)c1ccc(Nc2nc(NC3(c4ccc(Cl)cc4)CC3)nc(OCC(F)(F)F)n2)cc1` [Compound 3253], the EC50 under setting [1] is 0.01 to 10 nM.

As to `O=C(NCC[C@H](NC(=O)c1ccc(Nc2nc(NC3(c4ccc(Cl)cc4)CC3)nc(OCC(F)(F)F)n2)cc1)C(=O)O)C(=O)NCC1(CN2CCCN2)CC1` [Compound 1443], the EC50 under setting [2] is 0.01 to 10 nM.

Take `COC(=O)[C@H](CNC(=O)C(=O)Nc1ccc(OCCN(C)C)nc1)NC(=O)c1ccc(Nc2nc(NC3(c4ccc(Cl)cc4)CC3)nc(OCC(F)(F)F)n2)cc1` [Compound 3735]: under setting [4], the EC50 lay within 0.01 to 10 nM.

For the compound `COC(=O)[C@H](CNC(=O)C(=O)Nc1ccc(Oc2ccccc2)cc1)NC(=O)c1ccc(Nc2nc(NC3(c4ccc(Cl)cc4)CC3)nc(OCC(F)(F)F)n2)cc1` [Compound 3082], the EC50 under setting [1] lay in the range of 0.01 to 10 nM.

Take `CC(C)(CNC(=O)C(=O)Nc1ccc2cc[nH]c2c1)CNC(=O)c1ccc(Nc2nc(NC3(c4ccc(Cl)cc4)CC3)nc(OCC(F)(F)F)n2)cc1` [Compound 3337]: the EC50 under setting [1] fell in the range of 0.01 to 10 nM.

For the compound `COC(=O)[C@H](CNC(=O)C(=O)Nc1ccc(N)nc1)NC(=O)c1ccc(Nc2nc(NC3(c4ccc(Cl)cc4)CC3)nc(OCC(F)(F)F)n2)cc1` [Compound 3705], the EC50 under setting [4] was 0.01 to 10 nM.

Turning to `COC(=O)[C@H](CCNC(=O)C(=O)NCc1cccc(F)c1F)NC(=O)c1ccc(Nc2nc(NC3(c4ccc(Cl)cc4)CC3)nc(OCC(F)(F)F)n2)cc1` [Compound 1160], under setting [2], the EC50 was 0.01 to 10 nM.

As to `CCOC(=O)C(=O)NC[C@H](NC(=O)c1ccc(Nc2nc(NC3(c4ccc(Cl)cc4)CC3)nc(OCC(F)(F)F)n2)cc1)C(=O)OC` [Compound 1001, (S)-methyl 2-(4-(4-(1-(4-chlorophenyl)cyclopropylamino)-6-(2,2,2-trifluoroethoxy)-1,3,5-triazin-2-ylamino)benzamido)-3-(2-ethoxy-2-oxoacetamido)propanoate], under setting [2], the EC50 fell in the range of 10 to 1000 nM.

In the case of `CC(C)(CNC(=O)C(=O)Nc1cc(F)c(F)c(F)c1)CNC(=O)c1ccc(Nc2nc(NC3(c4ccc(Cl)cc4)CC3)nc(OCC(F)(F)F)n2)cc1` [Compound 1558], the EC50 under setting [2] was 0.01 to 10 nM.

For `COC(=O)[C@H](CCNC(=O)C(=O)Nc1ccc(-c2nc(OC)cc(OC)n2)cc1)NC(=O)c1ccc(Nc2nc(NC3(c4ccc(Cl)cc4)CC3)nc(OCC(F)(F)F)n2)cc1` [Compound 3302], the EC50 under setting [1] is 0.01 to 10 nM.
